Assay results taken from ChEMBL document CHEMBL5550161, “Discovery of novel small molecules targeting the USP21/JAK2/STAT3 axis for the treatment of triple-negative breast cancer” (Eur J Med Chem, 2024).

Columns and labels:
[1] = system: MCF7; assay: Anti-proliferative activity against human MCF7 cells assessed as cell growth inhibition incubated for 72 hrs by MTT assay; format: functional, cell-based; details: MCF7, 72 h
[2] = system: MDA-MB-231; assay: Anti-proliferative activity against human MDA-MB-231 cells assessed as cell growth inhibition incubated for 72 hrs by MTT assay; format: functional, cell-based; details: MDA-MB-231, 72 h
[3] = system: Hs-578T; assay: Anti-proliferative activity against human Hs-578T cells assessed as cell growth inhibition incubated for 72 hrs by MTT assay; format: functional, cell-based
[4] = system: HCC1806; assay: Anti-proliferative activity against human HCC1806 cells assessed as cell growth inhibition incubated for 72 hrs by MTT assay; format: functional, cell-based; details: HCC1806, 72 h
[5] = target: Tyrosine-protein kinase JAK2 (Homo sapiens, UniProt O60674); assay: Inhibition of JAK2 (unknown origin)
Sequence of Tyrosine-protein kinase JAK2 (O60674 whole entry): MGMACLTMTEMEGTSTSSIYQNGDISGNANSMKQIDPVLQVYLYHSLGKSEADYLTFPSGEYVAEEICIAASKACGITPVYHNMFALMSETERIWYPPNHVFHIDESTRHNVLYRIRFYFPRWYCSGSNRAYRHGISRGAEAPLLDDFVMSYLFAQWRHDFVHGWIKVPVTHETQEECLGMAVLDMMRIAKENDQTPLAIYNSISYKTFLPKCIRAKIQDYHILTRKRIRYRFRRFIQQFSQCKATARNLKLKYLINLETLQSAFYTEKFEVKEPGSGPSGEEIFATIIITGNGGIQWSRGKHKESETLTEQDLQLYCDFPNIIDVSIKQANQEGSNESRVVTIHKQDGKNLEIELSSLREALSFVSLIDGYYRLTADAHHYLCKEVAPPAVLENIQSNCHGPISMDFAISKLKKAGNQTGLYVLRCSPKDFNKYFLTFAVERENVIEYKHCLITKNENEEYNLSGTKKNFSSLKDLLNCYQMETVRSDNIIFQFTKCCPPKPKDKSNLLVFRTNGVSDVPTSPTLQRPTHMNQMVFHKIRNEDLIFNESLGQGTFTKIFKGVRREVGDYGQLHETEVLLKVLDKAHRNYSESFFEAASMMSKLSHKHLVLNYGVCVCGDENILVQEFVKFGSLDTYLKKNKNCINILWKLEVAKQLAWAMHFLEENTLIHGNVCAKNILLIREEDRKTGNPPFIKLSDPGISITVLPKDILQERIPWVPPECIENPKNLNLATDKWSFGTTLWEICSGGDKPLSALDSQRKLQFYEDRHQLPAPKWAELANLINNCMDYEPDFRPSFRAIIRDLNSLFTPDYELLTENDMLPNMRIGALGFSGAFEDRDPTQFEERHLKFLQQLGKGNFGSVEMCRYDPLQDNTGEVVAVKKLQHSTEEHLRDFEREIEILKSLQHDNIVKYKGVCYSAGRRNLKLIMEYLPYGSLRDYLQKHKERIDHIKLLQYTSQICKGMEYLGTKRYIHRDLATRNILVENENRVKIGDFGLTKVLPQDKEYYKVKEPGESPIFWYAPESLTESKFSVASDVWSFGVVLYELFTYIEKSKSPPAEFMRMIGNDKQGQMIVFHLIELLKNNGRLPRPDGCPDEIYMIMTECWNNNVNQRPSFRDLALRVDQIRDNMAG

Structure (SMILES)	IC50 [1] [µM]	IC50 [2] [µM]	IC50 [4] [µM]	IC50 [5] [µM]	IC50 [3] [µM]
COc1cc(Nc2cc(F)ccc2C(=O)NCCc2c[nH]c3c(C(F)(F)F)cccc23)cc(OC)c1OC	8.98	4.03	10.5		19.4
COc1cc(Nc2cccc(F)c2C(=O)NCCc2c[nH]c3ccccc23)cc(OC)c1OC	> 100	24.3	3.25		24.5
COc1ccc(Nc2cc(OC)c(OC)c(OC)c2)c(C(=O)NCCc2c[nH]c3ccccc23)c1	> 100	82.1	29.9		> 100
COc1cc(Nc2cc(F)cc(F)c2C(=O)NCCc2c[nH]c3ccccc23)cc(OC)c1OC	> 100	1.66	3.14		1.03
COc1cc(Nc2c(F)cc(F)cc2C(=O)NCCc2c[nH]c3ccccc23)cc(OC)c1OC	> 100	> 100	> 100		> 100
COc1cc(Nc2cc(C)ccc2C(=O)NCCc2c[nH]c3ccccc23)cc(OC)c1OC	> 100	> 100	26.5		> 100
COc1ccc2[nH]cc(CCNC(=O)c3ccc(F)cc3Nc3cc(OC)c(OC)c(OC)c3)c2c1	23.6	4.66	18		> 100
COc1cc(Nc2ccc(Br)cc2C(=O)NCCc2c[nH]c3ccccc23)cc(OC)c1OC	> 100	> 100	> 100		> 100
COc1cc(Nc2cc(C)c(F)cc2C(=O)NCCc2c[nH]c3ccccc23)cc(OC)c1OC	> 100	93.7	15		47.8
COc1cc(Nc2cccc(C(F)(F)F)c2C(=O)NCCc2c[nH]c3ccccc23)cc(OC)c1OC	67	> 100	> 100		> 100
COc1cc(Nc2cc(F)cc(C)c2C(=O)NCCc2c[nH]c3ccccc23)cc(OC)c1OC	29.4	50.4	70.7		> 100
COc1cc(C)c2[nH]cc(CCNC(=O)c3ccc(F)cc3Nc3cc(OC)c(OC)c(OC)c3)c2c1	> 100	2.12	15.1		19.8
COc1cc(Nc2cc(F)ccc2C(=O)NCCc2c[nH]c3cc(F)cc(F)c23)cc(OC)c1OC	23	1.47	14.2		26.4
COc1cc(Nc2cc(F)ccc2C(=O)NCCc2c[nH]c3c(OC)cccc23)cc(OC)c1OC	> 100	20.9	2.57		2.86
COc1cc(Nc2cc(F)ccc2C(=O)NCCc2c[nH]c3cc(F)c(F)cc23)cc(OC)c1OC	50.6	1.68	20.2		27.3
COc1cc(Nc2cc(F)ccc2C(=O)NCCc2c[nH]c3cccc(OC)c23)cc(OC)c1OC	20.6	2.96	18.2		34.7
COc1cc(Nc2cccc(OC)c2C(=O)NCCc2c[nH]c3ccccc23)cc(OC)c1OC	> 100	> 100	> 100		> 100
COc1cc(Nc2ccc(Cl)cc2C(=O)NCCc2c[nH]c3ccccc23)cc(OC)c1OC	> 100	> 100	> 100		> 100

Structure (SMILES)	IC50 [1] [µM]	IC50 [2] [µM]	IC50 [4] [µM]	IC50 [5] [µM]	IC50 [3] [µM]
COc1cc(Nc2ccc(F)cc2C(=O)NCCc2c[nH]c3ccccc23)cc(OC)c1OC	> 100	> 100	12.5		55.8
COc1cc(Nc2cccc(Cl)c2C(=O)NCCc2c[nH]c3ccccc23)cc(OC)c1OC	41.5	95.1	> 100		> 100
COc1cc(Nc2ccccc2C(=O)NCCc2c[nH]c3ccccc23)cc(OC)c1OC	> 100	99.7	2.41	> 10	2.18
COc1cc(Nc2c(C(=O)NCCc3c[nH]c4ccccc34)ccc(F)c2F)cc(OC)c1OC	78	85.3	90		> 100
COc1cc(Nc2ccc(C(F)(F)F)cc2C(=O)NCCc2c[nH]c3ccccc23)cc(OC)c1OC	43.3	82.7	> 100		> 100
COc1cc(Nc2cc(C(F)(F)F)ccc2C(=O)NCCc2c[nH]c3ccccc23)cc(OC)c1OC	58.6	22.4	52.2		84.3
COc1cc(Nc2c(F)cccc2C(=O)NCCc2c[nH]c3ccccc23)cc(OC)c1OC	> 100	> 100	> 100		> 100
COc1cc(Nc2cccc(C)c2C(=O)NCCc2c[nH]c3ccccc23)cc(OC)c1OC	> 100	> 100	> 100		> 100
COc1cc2[nH]cc(CCNC(=O)c3ccc(F)cc3Nc3cc(OC)c(OC)c(OC)c3)c2cc1OC	65.8	94	91.5		> 100
COc1cc(Nc2cc(F)ccc2C(=O)NCCc2c[nH]c3cc(C)ccc23)cc(OC)c1OC	74	11.9	34.5		> 100
COc1cc(Nc2cc(F)c(F)cc2C(=O)NCCc2c[nH]c3ccccc23)cc(OC)c1OC	> 100	41.8	8.3		4.38
COc1cc(Nc2cc(F)ccc2C(=O)NCCc2c[nH]c3cc(Cl)ccc23)cc(OC)c1OC	12.2	3.08	8.46		57.7
COc1cc(Nc2c(C)cccc2C(=O)NCCc2c[nH]c3ccccc23)cc(OC)c1OC	> 100	> 100	> 100		> 100
COc1cc(Nc2cc(F)c(C)cc2C(=O)NCCc2c[nH]c3ccccc23)cc(OC)c1OC	11	38.6	20.2		> 100
COc1ccc2c(CCNC(=O)c3ccc(F)cc3Nc3cc(OC)c(OC)c(OC)c3)c[nH]c2c1	40.4	46.7	1.75		> 100
COc1cc(Nc2c(C(=O)NCCc3c[nH]c4ccccc34)cccc2[N+](=O)[O-])cc(OC)c1OC	> 100	31.3	> 100		> 100
COc1cc(Br)c2c(CCNC(=O)c3ccc(F)cc3Nc3cc(OC)c(OC)c(OC)c3)c[nH]c2c1	> 100	58.2	> 100		> 100

Continued, in another order:

IC50 [1] [µM]	IC50 [2] [µM]	IC50 [4] [µM]	IC50 [5] [µM]	Structure (SMILES)	IC50 [3] [µM]
3.26	1.99	1.82		COc1cc(Nc2cc(F)ccc2C(=O)NCCc2c[nH]c3cccc(Cl)c23)cc(OC)c1OC	3.02
0.97	0.53	0.47		COc1cc(Nc2cc(F)ccc2C(=O)NCCc2c[nH]c3cccc(F)c23)cc(OC)c1OC	1.86
8.77	2.79	7.81		COc1cc(Nc2cc(F)ccc2C(=O)NCCc2c[nH]c3ccc(C)cc23)cc(OC)c1OC	55.5
1.44	1.03	2.4		COc1cc(Nc2cc(F)ccc2C(=O)NCCc2c[nH]c3ccccc23)cc(OC)c1OC	1.46
2.7	2.9	2.39		COc1cc(Nc2cc(F)ccc2C(=O)NCCc2c[nH]c3cccc(C)c23)cc(OC)c1OC	3.44
3.1	2.14	1.84		COc1cc(Nc2cc(F)ccc2C(=O)NCCc2c[nH]c3cc(Br)ccc23)cc(OC)c1OC	22.1
8.75	2.2	11.3		COc1cc(Nc2cc(F)ccc2C(=O)NCCc2c[nH]c3ccc(Cl)cc23)cc(OC)c1OC	41.3
3.28	3.75	4.33		COc1cc(Nc2cc(Br)ccc2C(=O)NCCc2c[nH]c3ccccc23)cc(OC)c1OC	> 100
2.69	2.6	1.88		COc1cc(Nc2cc(Cl)ccc2C(=O)NCCc2c[nH]c3ccccc23)cc(OC)c1OC	13.1
1.86	0.68	0.92		COc1cc(Nc2cc(F)ccc2C(=O)NCCc2c[nH]c3ccc(F)c(F)c23)cc(OC)c1OC	1.32
4.37	3.55	2.16		COc1cc(Nc2cc(F)ccc2C(=O)NCCc2c[nH]c3cccc(Br)c23)cc(OC)c1OC	7.97
8.65	2.94	3.46		COc1cc(Nc2cc(F)ccc2C(=O)NCCc2c[nH]c3ccc(Br)cc23)cc(OC)c1OC	51.5
3.56	2.44	1.94		COc1cc(Nc2cc(F)ccc2C(=O)NCCc2c[nH]c3c(Br)cccc23)cc(OC)c1OC	13.1
5.09	2.65	8.43		COc1cc(Nc2cc(F)ccc2C(=O)NCCc2c[nH]c3cc(F)ccc23)cc(OC)c1OC	89.1
1.65	1.09	2.82		COc1cc(Nc2cc(F)ccc2C(=O)NCCc2c[nH]c3c(Cl)cccc23)cc(OC)c1OC	1.57
2.12	1.97	3.35		COc1cc(Nc2cc(F)ccc2C(=O)NCCc2c[nH]c3c(C)cccc23)cc(OC)c1OC	2.1
0.53	0.37	0.4		COc1cc(Nc2cc(F)ccc2C(=O)NCCc2c[nH]c3c(F)cccc23)cc(OC)c1OC	0.76
1.38	0.83	2.4		COc1cc(Nc2cc(F)ccc2C(=O)NCCc2c[nH]c3ccc(F)cc23)cc(OC)c1OC	1.37
